Test results taken from US9808445B2, “Factor IXa inhibitors” (Merck Sharp & Dohme Corp., priority 2014, dated 2017).
Counter-ions that a name gives are not always drawn.

Each compound was assayed against human factor IXa (Homo sapiens (Human), UniProt P00740) (assay: Determination of inhibitory activity against factor IXa (fluorogenic substrate SPECTROFLUOR FIXa)). Conditions: Factor IXa enzyme assay human.
Format: biochemical
Description: Inhibitory activity against factor IXa was tested using the substrate SPECTROFLUOR FIXa (american diagnostica inc.; 500 West Avenue, Stamford, Conn. 06902 USA; Pr. No. 299F) and human factor IXa (american diagnostica inc.; Pr. No. 449b). Test substances were dissolved in buffer A (50 mM α,α,α-tris (hydroxymethyl) methylamine (Tris), 100 mM NaCl, 5 mM CaCl2, 15% (v/v) ethylene glycol, pH 8.0) were mixed with factor IXa (0.1 μg/ml final concentration). The enzyme reaction was started by addition of SPECTROFLUOR FIXa (100 μM final concentration). After incubation for 60 minutes at room temperature, the reaction was stopped by the addition of 20% (v/v) acetic acid solution, and then the fluorescence value was measured (Excitation Wavelength: 355 nm, Emission Wavelength; 460 nm) in a microtiter plate reader (ARVO 1420 Multilabel Counter; PerkinElmer).
The IC50 was calculated from a dilution series of the test substance with the aid of the software, Symyx Assay Explorer (Symyx Technologies, Inc.).

Chain of human factor IXa (P00740 227-461): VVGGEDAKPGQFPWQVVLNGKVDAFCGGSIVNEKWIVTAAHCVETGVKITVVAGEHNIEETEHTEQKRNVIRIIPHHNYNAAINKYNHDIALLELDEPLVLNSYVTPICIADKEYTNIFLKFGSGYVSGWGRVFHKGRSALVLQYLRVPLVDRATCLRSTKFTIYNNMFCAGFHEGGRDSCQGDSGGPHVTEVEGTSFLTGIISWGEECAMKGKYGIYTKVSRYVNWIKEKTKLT
Chain of human factor IXa (P00740 47-191 partner): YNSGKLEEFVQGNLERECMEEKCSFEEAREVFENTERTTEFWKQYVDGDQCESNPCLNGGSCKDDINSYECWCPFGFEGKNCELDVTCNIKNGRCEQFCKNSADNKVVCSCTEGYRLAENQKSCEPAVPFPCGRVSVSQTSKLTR

Which IC50 does the source give for `Nc1noc2c(N3C[C@@H]4CC[C@H]3[C@@H]4NC(=O)c3ccc(-n4cnc5ncccc54)cc3Cl)ncc(Cl)c12` (relative stereo) [Example 22, N-((1S*,4S*,7R*)-2-(3-Amino-4-chloroisoxazolo[5,4-c]pyridin-7-yl)-2-azabicyclo[2.2.1]heptan-7-yl)-2-chloro-4-(1H-imidazo[4,5-b]pyridin-1-yl)benzamide] here?
Its IC50 is ≤ 100 nM.

How did the IC50 turn out when `Nc1noc2c(N3C[C@@H]4CC[C@H]3[C@@H]4NC(=O)c3ccc(-c4ccc(=O)n(CCO)c4)cc3Cl)ncc(Cl)c12` (relative stereo) [Example 23, N-((1S*,4S*,7R*)-2-(3-Amino-4-chloroisoxazolo[5,4-c]pyridin-7-yl)-2-azabicyclo[2.2.1]heptan-7-yl)-2-chloro-4-(1-(2-hydroxyethyl)-6-oxo-1,6-dihydropyridin-3-yl)benzamide] was run?
Its IC50 is ≤ 100 nM.

`Cn1nc(-c2ccc(C(=O)N[C@@H]3[C@H]4CC[C@@H]3N(c3ncc(Cl)c5c(N)noc35)C4)c(Cl)c2)ccc1=O` (relative stereo) [Example 24, N-((1S*,4S*,7R*)-2-(3-Amino-4-chloroisoxazolo[5,4-c]pyridin-7-yl)-2-azabicyclo[2.2.1]heptan-7-yl)-2-chloro-4-(1-methyl-6-oxo-1,6-dihydropyridazin-3-yl)benzamide] was tested. Which IC50 did it give?
Its IC50 is ≤ 100 nM.

`Cn1cc(-c2ccc(C(=O)N[C@@H]3[C@H]4CC[C@@H]3N(c3nc(C#N)cc5c(N)noc35)C4)c(Cl)c2)ccc1=O` (relative stereo) [Example 25, N-((1S*,4S*,7R*)-2-(3-Amino-5-cyanoisoxazolo[5,4-c]pyridin-7-yl)-2-azabicyclo[2.2.1]heptan-7-yl)-2-chloro-4-(1-methyl-6-oxo-1,6-dihydropyridin-3-yl)benzamide] was tested. Which IC50 did it give?
Its IC50 is ≤ 100 nM.

`Cc1cc2c(N)noc2c(N2C[C@@H]3CC[C@H]2[C@@H]3NC(=O)c2ccc(-n3cnnc3C(F)(F)F)cc2Cl)n1` (relative stereo) [Example 26, N-((1S*,4S*,7R*)-2-(3-Amino-5-methylisoxazolo[5,4-c]pyridin-7-yl)-2-azabicyclo[2.2.1]heptan-7-yl)-2-chloro-4-(3-(trifluoromethyl)-4H-1,2,4-triazol-4-yl)benzamide] was tested. Which IC50 did it give?
Its IC50 is ≤ 100 nM.

`Cc1cc2c(N)noc2c(N2C[C@@H]3CC[C@H]2[C@@H]3NC(=O)c2ccc(-c3cnc(=O)n(C)c3)cc2Cl)n1` (relative stereo) [Example 27, N-((1S*,4S*,7R*)-2-(3-Amino-5-methylisoxazolo[5,4-c]pyridin-7-yl)-2-azabicyclo[2.2.1]heptan-7-yl)-2-chloro-4-(1-methyl-2-oxo-1,2-dihydropyrimidin-5-yl)benzamide TFA salt] was tested. Which IC50 did it give?
Its IC50 is ≤ 100 nM.

For `Cn1ncn(-c2ccc(C(=O)N[C@@H]3[C@H]4CC[C@@H]3N(c3ncc(Cl)c5c(N)noc35)C4)c(Cl)c2)c1=O` (relative stereo) [Example 28, N-((1S*,4S*,7R*)-2-(3-Amino-4-chloroisoxazolo[5,4-c]pyridin-7-yl)-2-azabicyclo[2.2.1]heptan-7-yl)-2-chloro-4-(1-methyl-5-oxo-1,5-dihydro-4H-1,2,4-triazol-4-yl)benzamide], which IC50 is on record?
The IC50 was ≤ 100 nM.

With `Cc1ncn(-c2ccc(C(=O)NC3C4CCC3N(c3ncc(Cl)c5c(N)noc35)C4)c(Cl)c2)n1` (single isomer, unassigned) [Example 7.1, N-((1S*,4S*,7R*)-2-(3-Amino-4-chloroisoxazolo[5,4-c]pyridin-7-yl)-2-azabicyclo[2.2.1]heptan-7-yl)-2-chloro-4-(3-methyl-1H-1,2,4-triazol-1-yl)benzamide] as the compound, how does the IC50 read?
Its IC50 is ≤ 100 nM.

How did the IC50 turn out when `Cc1ncn(-c2ccc(C(=O)NC3C4CCC3N(c3ncc(Cl)c5c(N)noc35)C4)c(Cl)c2)n1` (single isomer, unassigned) [Example 7.2, N-((1S*,4S*,7R*)-2-(3-Amino-4-chloroisoxazolo[5,4-c]pyridin-7-yl)-2-azabicyclo[2.2.1]heptan-7-yl)-2-chloro-4-(3-methyl-1H-1,2,4-triazol-1-yl)benzamide] was run?
The IC50 was 100 to 1000 nM.

`Nc1noc2c(N3CC4CCC3C4NC(=O)c3ccc(-n4cncn4)cc3Cl)ncc(Cl)c12` (single isomer, unassigned) [Example 8.1, N-((1S*,4S*,7R*)-2-(3-Amino-4-chloroisoxazolo[5,4-c]pyridin-7-yl)-2-azabicyclo[2.2.1]heptan-7-yl)-2-chloro-4-(1H-1,2,4-triazol-1-yl)benzamide] was tested. Which IC50 did it give?
Its IC50 is ≤ 100 nM.

For `Nc1noc2c(N3CC4CCC3C4NC(=O)c3ccc(-n4cncn4)cc3Cl)ncc(Cl)c12` (single isomer, unassigned) [Example 8.2, N-((1S*,4S*,7R*)-2-(3-Amino-4-chloroisoxazolo[5,4-c]pyridin-7-yl)-2-azabicyclo[2.2.1]heptan-7-yl)-2-chloro-4-(1H-1,2,4-triazol-1-yl)benzamide], which IC50 is on record?
Its IC50 is 100 to 1000 nM.

`Cc1cc2c(N)noc2c(N2CC3CCC2C3NC(=O)c2ccc(-n3cnc(C)n3)cc2Cl)n1` (single isomer, unassigned) [Example 11.1, N-((1S*,4S*,7R*)-2-(3-Amino-5-methylisoxazolo[5,4-c]pyridin-7-yl)-2-azabicyclo[2.2.1]heptan-7-yl)-2-chloro-4-(3-methyl-1H-1,2,4-triazol-1-yl)benzamide] was tested. Which IC50 did it give?
Its IC50 is 100 to 1000 nM.

How did the IC50 turn out when `Cc1cc2c(N)noc2c(N2CC3CCC2C3NC(=O)c2ccc(-n3cnc(C)n3)cc2Cl)n1` (single isomer, unassigned) [Example 11.2, N-((1S*,4S*,7R*)-2-(3-Amino-5-methylisoxazolo[5,4-c]pyridin-7-yl)-2-azabicyclo[2.2.1]heptan-7-yl)-2-chloro-4-(3-methyl-1H-1,2,4-triazol-1-yl)benzamide] was run?
The IC50 was ≤ 100 nM.

`Cc1ncn(-c2cnc(C(=O)N[C@@H]3[C@H]4CC[C@@H]3N(c3ncc(Cl)c5c(N)noc35)C4)c(Cl)c2)n1` (single isomer, unassigned) [Example 29, N-((1S*,4S*,7R*)-2-(3-Amino-4-chloroisoxazolo[5,4-c]pyridin-7-yl)-2-azabicyclo[2.2.1]heptan-7-yl)-3-chloro-5-(3-methyl-1H-1,2,4-triazol-1-yl)picolinamide] was tested. Which IC50 did it give?
Its IC50 is ≤ 100 nM.
